Measured values from patent US20240025919A1, “AZA-TETRACYCLIC OXAZEPINE COMPOUNDS AND USES THEREOF” (Genentech, Inc., priority 2022, published 2024).
Where “and” joins values, the source holds several entries; their conditions need not be identical. Equal values may be shown once. Read-outs that look alike come from different tables or passages of the source.

How the values were obtained:
KRAS G12D = KRAS G12D (Homo sapiens (Human), UniProt P01116, G12D); experiment: KRAS G12D LoEnz Biochemical Assay, BODIPY-GDP Exchange TR-FRET (SOS1-mediated nucleotide exchange); settings: read-out: KRas (G12D) GDP HTRF IC50
KRAS G12D, sequence (P01116-2 other isoform, or with tags, fused parts or gaps G12D): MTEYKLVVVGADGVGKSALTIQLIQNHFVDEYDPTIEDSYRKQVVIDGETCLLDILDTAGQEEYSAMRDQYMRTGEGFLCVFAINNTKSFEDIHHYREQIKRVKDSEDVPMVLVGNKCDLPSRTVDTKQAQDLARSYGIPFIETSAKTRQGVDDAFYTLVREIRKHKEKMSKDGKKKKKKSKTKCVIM

[1] = test system: HPAC (homozygous mutant KRAS G12D human pancreatic cell line); experiment: KRAS 3D-Cell Proliferation Assay, HPAC (CellTiter-Glo 3D, 7 days); assay type: cell-based; settings: HPAC 3D culture, read-out: Prolif HPAC 3D ATP IC50
Method in brief: (§1)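 Cells were grown as 3D cultures in ultra-low attachment plates in RPMI-1640 with 10% FBS and 2 mM glutamine. Compound dilution series (0.3% DMSO final) were added after overnight culture, and plates were incubated for 7 days at 37 °C. CellTiter-Glo 3D luminescence was normalised to DMSO and 1 uM staurosporine, and IC50 was taken from 4-parameter Hill fits.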

KRAS WT [2] = molecular target: T1, KRAS WT (Homo sapiens (Human), UniProt P01116); experiment: KRAS WT Biochemical Assay, BODIPY-GDP Exchange TR-FRET (Example 502; 0.06 nM KRAS WT, 15 nM GDP, 300 nM SOS1, 120-minute incubation); settings: read-out: KRas HTRF IC50
T1 sequence (P01116-2 other isoform, or with tags, fused parts or gaps): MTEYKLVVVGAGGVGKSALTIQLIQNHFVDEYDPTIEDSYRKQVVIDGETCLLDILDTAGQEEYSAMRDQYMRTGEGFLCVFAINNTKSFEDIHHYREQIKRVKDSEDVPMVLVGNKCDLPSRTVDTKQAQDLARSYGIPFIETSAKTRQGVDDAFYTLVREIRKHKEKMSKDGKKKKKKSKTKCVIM
Method in brief: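 IC50 from a 4-parameter Hill fit of percent inhibition, itself the TR-FRET 520/490 nm ratio scaled between DMSO and a fully inhibiting control. Reaction: 300 nM SOS1 and 300 nM BODIPY-GDP added to preformed 0.06 nM KRAS WT/15 nM GDP/Tb-streptavidin complex; 120 min incubation; pH 7.5 HEPES, MgCl2, DTT.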

[3] = test system: AsPC-1 (homozygous mutant KRAS G12D human pancreatic cell line); experiment: KRAS 3D-Cell Proliferation Assay, AsPC-1 (CellTiter-Glo 3D, 7 days); assay type: cell-based; settings: AsPC-1 3D culture, read-out: Prolif AsPC-1 3D ATP IC50
Method: (§2) Example 503: KRAS 3D-Cell Proliferation Assays. Cellular potencies of compounds are assessed by evaluating inhibition of proliferation in 3D cultures of homozygous mutant KRAS G12D human pancreatic cell lines (AsPC-1 and HPAC) as compared to a KRAS wild type human lung adenocarcinoma cell line (PC-9 and/or H1975). Cells are seeded into 384-well black round-bottom, ultra-low attachment assay plates in 50 uL cell growth medium (RPMI-1640 with 10% fetal bovine serum and 2 mM L-glutamine). After overnight incubation at 37° C. and 5% CO2, compounds solubilized in DMSO are added as dilution series to the wells in a total volume of 150 nL (0.3% DMSO final). The cells are incubated for 7 days at 37° C. and 5% CO2. Cell proliferation is quantitated by addition of 40 uL/well of CellTiter-GloO 3D (Promega), and the well contents are mixed 20× at high speed using liquid handling automation workstation (Bravo with 384-well head) and centrifuged at 1500 rpm for 2 minutes to eliminate bubbles. This reagent in combination with mechanical disruption releases the cellular ATP to promote activity in a luciferase-based enzyme/substrate chemiluminescent detection system. After a 30-minute incubation under ambient conditions with shaking and an additional 10 minutes without shaking, the luminescence is read on a plate reader (e.g. EnVision [PerkinElmer]). The results are normalized to percent inhibition based on the following control samples: DMSO (0% inhibition) and 1 uM staurosporine (100% inhibition). The normalized luminescence results are plotted against compound concentration, and the data are fit to a 4-parameter Hill equation to determine the IC50 values.

[4] = test system: H1975 (KRAS wild type human lung adenocarcinoma cell line); experiment: KRAS 3D-Cell Proliferation Assay, H1975 (CellTiter-Glo 3D, 7 days); assay type: cell-based; settings: H1975 3D culture, read-out: Prolif H1975 3D ATP IC50
Method in brief: as §1

KRAS WT [5] = molecular target: T1, KRAS WT; experiment: KRAS WT Biochemical Assay, BODIPY-GDP Exchange TR-FRET (Example 501; 3 nM KRAS WT, 3 nM SOS1, 60-minute incubation)
Method in brief: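 SOS1-mediated exchange assay: 3 nM biotin-KRAS WT with terbium-streptavidin, started with 3 nM SOS1 and 300 nM BODIPY-GDP, HEPES pH 7.5 with MgCl2. TR-FRET (520/490 nm) read after 60 min; normalized to DMSO and full-inhibition control, IC50 from 4-parameter Hill fit.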

[6] = test system: PC-9 (KRAS wild type human lung adenocarcinoma cell line); experiment: KRAS 3D-Cell Proliferation Assay, PC-9 (CellTiter-Glo 3D, 7 days); assay type: cell-based; settings: PC-9 3D culture, read-out: Prolif PC9 3D ATP IC50
Method: as §2

[7] = read-out: KRas(wt) GDP HTRF IC50

Compound | IC50 (KRAS G12D) [nM] | IC50 ([1]; Homo sapiens, HPAC, 168 h) [nM] | IC50 (KRAS WT [2]) [nM] | IC50 ([3]; Homo sapiens, ASPC1, 168 h) [nM] | IC50 ([4]; Homo sapiens, NCI-H1975, 168 h) [nM] | IC50 [1] [nM] | IC50 [3] [nM] | IC50 [4] [nM] | IC50 (KRAS WT [5]; read-out: KRas HTRF IC50) [nM] | IC50 (KRAS WT [5]; [7]) | IC50 [6] [nM] | IC50 ([6]; Homo sapiens, PC-9, 168 h) [nM]
Cc1c(F)c(N)cc(-c2nc3c4c(nc(OC[C@]5(CN6CC7(COC7)C6)CC5(F)F)nc4c2F)N2C[C@H]4CC[C@H](N4)[C@H]2[C@H](C)O3)c1C(F)(F)F (mixture of isomers) [165 a, 5-((5S,5aS,6S,9R)-12-((1-((2-Oxa-6-azaspiro[3.3]heptan-6-yl)methyl)-2,2-difluorocyclopropyl)methoxy)-1-fluoro-5-methyl-5a,6,7,8,9,10-hexahydro-5H-4-oxa-3,10a,11,13,14-pentaaza[6,9]methanonaphtho[1,8-ab]heptalen-2-yl)-2-fluoro-3-methyl-4-(trifluoromethyl)aniline] | 0.08 | 0.63 | 1.14 | 0.6 | 374 |  |  |  |  |  |  | 
Cc1c(F)c(N)cc(-c2nc3c4c(nc(OC[C@]56CCC[C@@H]5N(C)CCC6)nc4c2F)N2C[C@H]4CC[C@H](N4)[C@H]2[C@H](C)O3)c1C(F)(F)F (single isomer, unassigned) [126 (isomer 1)] | 0.1 | 0.51 | 0.42 | 0.6 | 770 |  |  |  |  |  |  | 
Cc1c(F)c(N)cc(-c2nc3c4c(nc(OC[C@]5(CN6CC7(COC7)C6)CC5(F)F)nc4c2F)N2C[C@H]4CC[C@H](N4)[C@H]2[C@H](C)O3)c1C(F)(F)F (single isomer, unassigned) [165 b] | 0.1 |  | 1.43 |  |  | 0.66 | 0.849 | 499 |  |  |  | 
Cc1c(F)c(N)cc(-c2nc3c4c(nc(OC[C@@]56CCCN5C[C@H](F)C6)nc4c2F)N2C[C@H]4CC[C@H](N4)[C@@H]2C(C)O3)c1C(F)(F)F (single isomer, unassigned) [237 (isomer 2)] | 0.15 |  |  | 200 |  |  |  |  | 0.35 |  |  | 
Cc1c(F)c(N)cc(-c2nc3c4c(nc(OC[C@]56CCN(C)C5COC6)nc4c2F)N2C[C@H]4CC[C@H](N4)[C@H]2[C@H](C)O3)c1C(F)(F)F (single isomer, unassigned) [258 (isomer 2)] | 0.07 | 2.68 |  | 6.9 | 1550 |  |  |  | 11 |  |  | 
Cc1cc(N)c(F)c(-c2nc3c4c(nc(OCC56CCN5CC(F)(F)C6)nc4c2F)N2C[C@H]4CC[C@H](N4)[C@H]2[C@H](C)O3)c1 (single isomer, unassigned) [Compound 23] |  |  |  |  |  |  | 20000 |  |  | 39500 nM and 94500 nM |  | 
CN1CCC2COc3nc(-c4cc(O)cc5cccc(F)c45)c(F)c4nc(OC[C@@]56CCCN5C[C@H](F)C6)nc(c34)N2CC1 (single isomer, unassigned) [Compound 49] |  |  |  | 20000 |  |  |  |  |  | 561 nM and 331 nM | 4240 | 
Cc1c(F)c(N)cc(-c2nc3c4c(nc(OC[C@]5(CN6CC7(COC7)C6)CC5(F)F)nc4c2F)N2C[C@H]4CC[C@H](N4)[C@H]2[C@H](C)O3)c1C(F)(F)F (stereo in doubt) [165 c, 5-((5S,5aS,6S,9R)-12-((1-((2-Oxa-6-azaspiro[3.3]heptan-6-yl)methyl)-2,2-difluorocyclopropyl)methoxy)-1-fluoro-5-methyl-5a,6,7,8,9,10-hexahydro-5H-4-oxa-3,10a,11,13,14-pentaaza[6,9]methanonaphtho[1,8-ab]heptalen-2-yl)-2-fluoro-3-methyl-4-(trifluoromethyl)aniline] | 0.09 |  | 2.19 |  |  | 1.09 | 1.1 | 481 |  |  |  | 
Cc1c(F)c(N)cc(-c2nc3c4c(nc(OC[C@]5(CN6CC7(COC7)C6)CC5(F)F)nc4c2F)N2C[C@H]4CC[C@H](N4)[C@H]2[C@H](C(F)(F)F)O3)c1C(F)(F)F (stereo in doubt) [255 a, 5-((5R,5aS,6S,9R)-12-(((R)-1-((2-oxa-6-azaspiro[3.3]heptan-6-yl)methyl)-2,2-difluorocyclopropyl)methoxy)-1-fluoro-5-(trifluoromethyl)-5a,6,7,8,9,10-hexahydro-5H-4-oxa-3,10a,11,13,14-pentaaza[6,9]methanonaphtho[1,8-ab]heptalen-2-yl)-2-fluoro-3-methyl-4-(trifluoromethyl)aniline] | 0.41 |  |  | 6.6 |  | 1.66 |  | 120 | 1.39 |  |  | 
Cc1c(F)c(N)cc(-c2nc3c4c(nc(OC[C@]5(CN6CC7(COC7)C6)CC5(F)F)nc4c2F)N2C[C@H]4CC[C@H](N4)[C@H]2[C@H](C(F)(F)F)O3)c1C(F)(F)F (stereo in doubt) [255 b, 5-((5R,5aS,6S,9R)-12-(((R)-1-((2-oxa-6-azaspiro[3.3]heptan-6-yl)methyl)-2,2-difluorocyclopropyl)methoxy)-1-fluoro-5-(trifluoromethyl)-5a,6,7,8,9,10-hexahydro-5H-4-oxa-3,10a,11,13,14-pentaaza[6,9]methanonaphtho[1,8-ab]heptalen-2-yl)-2-fluoro-3-methyl-4-(trifluoromethyl)aniline] | 0.27 |  |  |  |  | 4.21 | 4.7 | 308 | 1.17 |  |  | 
C=C1CN2CCC[C@@]2(COc2nc3c4c(nc(-c5nc(N)cc(C)c5C(F)(F)F)c(F)c4n2)O[C@@H](C)[C@@H]2[C@@H]4CC[C@H](CN32)N4)C1 [Compound 48, 6-((5S,5aS,6S,9R)-1-fluoro-5-methyl-12-(((S)-2-methylenetetrahydro-1H-pyrrolizin-7a(5H)-yl)methoxy)-5a,6,7,8,9,10-hexahydro-5H-4-oxa-3,10a,11,13,14-pentaaza-6,9-methanonaphtho[1,8-ab]heptalen-2-yl)-4-methyl-5-(trifluoromethyl)pyridin-2-amine] | 0.491 |  | 28.5 |  |  |  |  |  |  | 10.5 nM |  | 20000
Nc1nc2c(-c3nc4c5c(ncnc5c3F)N3C[C@H]5CC[C@H](N5)[C@H]3CO4)ccc(F)c2s1 [Compound 55, 7-fluoro-4-((5aS,6S,9R)-1-fluoro-5a,6,7,8,9,10-hexahydro-5H-4-oxa-3,10a,11,13,14-pentaaza-6,9-methanonaphtho[1,8-ab]heptalen-2-yl)benzo[d]thiazol-2-amine] | 22200 |  |  | 20000 |  |  |  |  |  | 200000 nM |  | 
C[C@@H]1Oc2nc(-c3cc(N)nc4ccccc34)c(F)c3nc(OC[C@]45CCN4CC(F)(F)C5)nc(c23)N2C[C@H]3CC[C@H](N3)[C@@H]12 [Compound 79, 4-((5S,5aS,6S,9R)-12-(((R)-3,3-Difluoro-1-azabicyclo[3.2.0]heptan-5-yl)methoxy)-1-fluoro-5-methyl-5a,6,7,8,9,10-hexahydro-5H-4-oxa-3,10a,11,13,14-pentaaza-6,9-methanonaphtho[1,8-ab]heptalen-2-yl)quinolin-2-amine] | 22.7 |  | 1530 |  |  |  | 4040 |  |  | 954 nM | 20000 | 
Cc1ccnc(-c2nc3c4c(nc(OC[C@]56CCN5CC(F)(F)C6)nc4c2F)N2C[C@H]4CC[C@H](N4)[C@H]2[C@H](C)O3)c1C(F)(F)F [Compound 88, (5S,5aS,6S,9R)-12-(((R)-3,3-Difluoro-1-azabicyclo[3.2.0]heptan-5-yl)methoxy)-1-fluoro-5-methyl-2-(4-methyl-3-(trifluoromethyl)pyridin-2-yl)-5a,6,7,8,9,10-hexahydro-5H-4-oxa-3,10a,11,13,14-pentaaza-6,9-methanonaphtho[1,8-ab]heptalene] | 1470 |  | 1620 | 20000 |  |  |  |  |  |  |  | 20000
